“Also recorded” adds a separate entry of the source.
Columns and labels:
[1] = test system: CD55 mRNA; test: CD55 mRNA expression of hMSCs by RT-qPCR; assay type: cell-based, human; conditions: for CD55 mRNA expression of hMSCs compared to untreated control: AT-, BM-, UC-hMSC, Erlotinib 2, 5, 10 μM or atorvastatin 2, 5, 25, 50 μM, within 24 hours, normalized to GADPH; for Dose dependence of CD55 upregulation in hMSCs: Erlotinib 2-10 μM, atorvastatin 2-50 μM; for Expression of CD55 on hMSC vs untreated control (mRNA or protein level not specified): drug treatment of hMSC
Experimental: (§1) FIG. 9 is a bar graph of CD55 mRNA expression of hMSCs in presence of atorvastatin, showing % Normalized to GADPH (0-25) for each MSC group Adipose Tissue (AT; red), Bone Marrow (BM; blue), and Umbilical Cord (UC; green), respectively, in the presence of 0 μM (untreated control) 2 μM, 5 μM, 25 μM, and 50 μM atorvastatin.
as §1, with “10” for “9”, “Erlotinib,” for “atorvastatin,”, “μM,” for “μM, 25 μM,”, “10” for “50”, “Erlotinib.” for “atorvastatin.”
(§2) The expression of CD55 in hMSC was then validated by RT-qPCR and flow cytometry.
hMSC were treated with Erlotinib, which is an EGFR inhibitor, on different dosages within 24 hours, […]

[2] = test system: CD55 surface protein; test: CD55 surface protein expression on hMSCs by flow cytometry; assay type: cell-based, human; conditions: AT-, BM-, UC-hMSC, 5 μM Atr or 5 μM Erl, 24 hr
Experimental: FIG. 11 is a bar graph of CD55 surface expression on hMSCs following 24 hr in presence of Atorvastatin (Atr) or Erlotinib (Erl), showing % of CD55+ cells (0-100) for each MSC group Adipose Tissue (AT; red), Bone Marrow (BM; blue), and Umbilical Cord (UC; green), respectively, in the presence of nothing (untreated control) 5 μM Atr, or 5 μM Erl.
as §2

Structure (SMILES)	CD55 mRNA expression of hMSCs compared to untreated control [1]	Dose dependence of CD55 upregulation in hMSCs [1]	Expression of CD55 on hMSC vs untreated control (mRNA or protein level not specified) [1]	CD55 surface protein level on hMSCs compared with untreated control [2]
C#Cc1cccc(Nc2ncnc3cc(OCCOC)c(OCCOC)cc23)c1 [erlotinib, Erlotinib]	increased CD55 expression with significance difference in mRNA level compared to untreated control	dose dependent manner	significantly increased of CD55 expression; also recorded: significantly higher expression of CD55 than untreated control	significantly upregulated compared with untreated control
CC(C)c1c(C(=O)Nc2ccccc2)c(-c2ccccc2)c(-c2ccc(F)cc2)n1CC[C@@H](O)C[C@@H](O)CC(=O)O [atorvastatin, Atorvastatin]	increase the expression of CD55 of hMSCs in both mRNA and protein level	there was not a similar dose dependent relationship	significantly increased of CD55 expression; also recorded: significantly higher expression of CD55 than untreated control	increase the expression of CD55 of hMSCs in both mRNA and protein level

— patent US20230218572A1, “COMPOSITIONS AND METHODS FOR IMPROVED MESENCHYMAL STEM CELL THERAPY” (Versitech Limited, priority 2021, published 2023)
